# Columns and labels:
# [1] = system: strain ATCC®6258 of C. krusei; assay: Etest method (MIC); assay type: cell-based, Candida krusei; settings: RPMI medium plates, 24 h at 35° C.; for MIC: Pichia kudriavzevii, ATCC6258; for phenotype by Etest MIC, interpretation by the EUCAST or CLSI table: fluconazole interpreted by extrapolation of the EUCAST and CLSI data for C. glabrata
# Protocol: (§1) The Etest® method is a commercial test for determining the sensitivity of a strain, most frequently used routinely in clinical mycology laboratories.
# (§2) The Etest® tests were performed according to the manufacturer's instructions. After distributing a standardised Mac Farland 0.5 inoculum (equivalent of […]) over plates of RPMI medium, said plates were incubated for 24 h at 35° C., with the exception of C. glabrata in which case the incubation was extended to 48 h so as to be able to determine the minimum inhibitory concentration (MIC).
# (§3) The results of the MICs obtained were interpreted in accordance with the tables of the CLSI (Clinical and Laboratory Standards Institute) and/or of EUCAST (European Committee on Antimicrobial Susceptibility Testing) (Arendrup M C, Cuenca-Estrella M, Lass-Flörl C, Hope W W (2014) Breakpoints for antifungal agents: an update from EUCAST focussing on echinocandins against Candida spp and triazoles against Aspergillus spp. Drug Resist Updat 16(6):81-95. doi:10.1016/j.drup.2014.01.001) (cf. Table 2 taken from Maubon D, Garnaud C, Calandra T, et al. (2014) Resistance of Candida spp. to antifungal drugs in the ICU: where are we now? Intensive Care Med. doi: 10.1007/s00134-014-3404-7) which list the clinical thresholds (CBPs) for the most common species of yeast of the genus Candida as a function of different antifungal agents, or according to the table of epidemiological thresholds (ECVs).
# [2] = system: strain GRE32 of C. krusei; assay: Etest method (MIC); assay type: cell-based, Candida krusei; settings: RPMI medium plates, 24 h at 35° C.; for MIC: Pichia kudriavzevii; for phenotype by Etest MIC, interpretation by the EUCAST or CLSI table: fluconazole interpreted by extrapolation of the EUCAST and CLSI data for C. glabrata
# Protocol: as §1, §2, §3
# [3] = system: strain 8/21 of C. parapsilosis; assay: Sensitivity test by HCA microscopy (chitin level, Calcofluor White); assay type: cell-based, Candida parapsilosis; settings: vs cells in the absence of antifungal agent; 6.5 h at 30° C., SC medium; concentration gradient of Table 1
# Protocol: (§4) The strains of Candida were incubated beforehand at 30° C. overnight in a yeast extract medium—peptone dextrose (YPD) (1% bacto peptone, 0.5% yeast extract, 2% glucose, 1.5% agar).
# Yeast colonies were then removed from YPD medium plates and suspended in a 0.9% NaCl saline solution, in which the cell concentration was estimated by optical microscopy using Kova counting slides. […]
# A step of acquiring images by automated fluorescence microscopy (ScanR screening station, Olympus), using a 40× lens and a CFW filter, made it possible to obtain 30 images per well so as to capture enough cells to provide statistically significant data. These images were analysed by software (ScanR analysis software, Olympus). Firstly, the background noise was processed so as to improve the contrast between the fluorescence of the yeasts and background noise. […] Segmentation of the fluorescent elements present in each of the acquired images was then performed using an algorithm predefined in the software, making it possible to determine the limit of each element on the basis of the fluorescence intensity of said element. […]
# Each element then corresponding to a yeast, it was thus possible, on the basis of these elements predefined beforehand, to define the fluorescence intensity for each of the yeasts, this intensity being directly correlated with the chitin content of their wall. […]
# [4] = system: strain GRE32 of C. krusei; assay: Sensitivity test by HCA microscopy (chitin level, Calcofluor White; cell count); assay type: cell-based, Candida krusei
# Protocol: as §4
# Yeast colonies were then removed from YPD medium plates and suspended in a 0.9% NaCl saline solution, in which the cell concentration was estimated by optical microscopy using Kova counting slides.
# A dilution was performed to obtain 15 ml of an inoculum at 3×10^6 CFU/ml, in a synthetic complete (SC) medium at pH 7 (2% glucose, 0.5% ammonium sulfate, 0.17% nitrogen-containing yeast base, 0.2% synthetic complete mixture, and 10% HEPES 1.5M pH 7.2) for C. albicans, C. parapsilosis, C. tropicalis and C. krusei, and in a solution of RPMI 1640 pH 7.3 (10% HEPES 1M pH 7.2) for C. glabrata, so as to reduce the formation of septa and clusters.
# 1 ml of inoculum was then added to 2 ml of antifungal solution prepared in an SC or RPMI medium depending on the species of fungus, so as to obtain a final concentration of yeast of 10^6 CFU/ml and the desired concentration of antifungal agent according to table 1.
# After homogenisation, the cultures were placed at 30° C. at 200 rpm, with the exception of cultures of C. glabrata, which were placed at 35° C. at 200 rpm, and incubated for a period of 6.5 h or 24 h.
# After incubation, 100 μl of the culture of fungi obtained above were transferred in triplicate to 96-well plates, and 2.5 μl of Calcofluor White (CFW) were added to each well so as to mark the chitin of the cell walls of the yeasts.
# A step of acquiring images by automated fluorescence microscopy (ScanR screening station, Olympus), using a 40× lens and a CFW filter, made it possible to obtain 30 images per well so as to capture enough cells to provide statistically significant data. These images were analysed by software (ScanR analysis software, Olympus). Firstly, the background noise was processed so as to improve the contrast between the fluorescence of the yeasts and background noise. A pixel threshold was then defined. Segmentation of the fluorescent elements present in each of the acquired images was then performed using an algorithm predefined in the software, making it possible to determine the limit of each element on the basis of the fluorescence intensity of said element. A size parameter was then applied to select the yeasts and eliminate the aggregates and the fluorescent debris.
# Each element then corresponding to a yeast, it was thus possible, on the basis of these elements predefined beforehand, to define the fluorescence intensity for each of the yeasts, this intensity being directly correlated with the chitin content of their wall.
# On the basis of said defined elements, it was also possible to automatically count the yeasts,
# The strain GRE32 of C. krusei was cultivated as described in paragraph I of the Examples section so as to obtain an inoculum at 3×10^6 CFU/ml in 15 ml of SC medium.
# 2 ml of fluconazole solution prepared in the SC medium were then added to 1 ml of this inoculum so as to obtain a final concentration of yeast of 10^6 CFU/ml and of 128 μg/ml in fluconazole. […]
# The chitin level in the cell wall of the yeasts was then measured by […] analysis (HCA) microscopy, as described in paragraph II of the Examples section, in triplicate for each condition of concentration of fluconazole and without fluconazole. […]
structure (smiles),measurement,setting,value
OC(Cn1cncn1)(Cn1cncn1)c1ccc(F)cc1F [fluconazole],MIC,[1],64 µg/mL
same,"phenotype by Etest MIC, interpretation by the EUCAST or CLSI table",[1],resistant
same,MIC,[2],64 µg/mL
same,"phenotype by Etest MIC, interpretation by the EUCAST or CLSI table",[2],resistant
same,increase in the chitin level in the wall of the cells,[3],less than 10%
same,phenotype of the strain with respect to the antifungal agent (HCA),"[4]; 6.5 h at 30° C., SC medium",resistant (an increase in the chitin level having a value less than 10% or a decrease in the chitin level of less than 20% or an unchanged chitin level)
same,decrease in the chitin level in the wall of the cells,"[4]; vs cells in the absence of antifungal agent, 6.5 h at 30° C., SC medium, concentration gradient of Table 1",less than 20%
C[C@@H](c1ncncc1F)[C@](O)(Cn1cncn1)c1ccc(F)cc1F [voriconazole],MIC,[1],1 µg/mL
same,"phenotype by Etest MIC, interpretation by the EUCAST or CLSI table",[1],intermediate
same,MIC,[2],1 µg/mL
same,"phenotype by Etest MIC, interpretation by the EUCAST or CLSI table",[2],intermediate
same,increase in the chitin level in the wall of the cells,[3],less than 10%
same,phenotype of the strain with respect to the antifungal agent (HCA),[4]; 24 h at 30° C.,intermediate (an increase in the chitin level having a value of from 10% to a value less than 20%)
same,decrease of the number of cells,"[4]; vs cells in the absence of antifungal agent, 24 h at 30° C.",less than 0.3 log
same,increase in the chitin level in the wall of the cells,"[4]; vs cells in the absence of antifungal agent, 24 h at 30° C., inoculum in SC medium, antifungal solution in RPMI medium, concentration gradient of Table 1",greater than or equal to 20%

# From patent publication US11415513B2, “Method for determining the degree of sensitivity of a strain of fungus to an antifungal agent” (UNIVERSITE GRENOBLE ALPES, priority 2015, dated 2022)
